Test results as given in US20250092353A1, “COMMENSAL FUNGUS AND USES THEREOF” (YEDA RESEARCH AND DEVELOPMENT CO. LTD., priority 2022, published 2025).

Tests used:
[1] = test system: serum IgA and IgG; assay: In vitro serum antibody binding assay (sera of colonized mice); type: in vivo; conditions: single-colonized animals
Method: Blood was collected from mice at rested at RT for 1 hour, followed by centrifugation 2,000 g 10 min. Serum supernatant was collected and froze at −80° C. until use. Cultured fungi were normalized to OD600=1 in PBS supplemented with 1% bovine serum albumin and 0.01% sodium azide (PBA solution). Cultured fungi were incubated with 20× diluted mouse serum on ice for 45 minutes, then washed twice with PBA, followed by staining with anti-mouse IgA and IgG. Samples were recorded on Cytek Aurora and analyzed in FlowJo (Treestar). Antibody binding intensity was normalized to the negative controls. Isotype control, non-stained and no-serum were used as negative controls.

[2] = test system: C. albicans SC5314 (ENO1-GFP); assay: In vivo competition with C. albicans in Abx-treated SPF mice (co-inoculation, cohousing)
Excerpt: (§1) FIGS. 3A-3M include fluorescent micrographs, graphs, and a scheme, showing K. weizmannii competition with C. albicans in colonized animals. (3A) A representative picture of a far-red fluorescent reporter Kazachstania strain (K. weizmannii ENO1-Mirf). (3B-C) Recoverable fecal K. weizmannii in colonized wild-type animals (without antibiotics) one and six months after single oral K. weizmannii ENO1-Mirf inoculation. (3D) Flow cytometric analysis of C. albicans SC5314 (ENO1-GFP), K. weizmannii (ENO1-Mirf), and mixed cultures used for oral inoculation (3E). […] Quantification (n=3-5 mice per group, 4 independent experiments) (see (3D). (3H) Schematic non-limiting outline of a co-housing experiment. (3I) Representative flow cytometric feces analysis of colonized mice 4 weeks after initial colonization (before cohousing) and 2 weeks after co-housing. (N=4 per group). (3J) Percentages of respective labelled fungi in feces of C. albicans, K. weizmannii colonized animals, before and after co-housing in Abx presence (except for day 48 and 58); antibiotics withdrawal on day 46 of cohousing, n=4 per group, representative of 2 independent experiments. (3K) Flow cytometric analysis of feces of germfree animals 1 week after oral inoculation of single fungi cultures or mixed C. albicans SC5314 (ENO1-GFP)/K. weizmannii (ENO1-Mirf) culture. […]

[3] = test system: C. albicans SC5314 (ENO1-GFP); assay: In vivo competition with C. albicans in germ-free animals; parameters: species or system mice; conditions: oral mixture of the two fungi
Excerpt: as §1

[4] = test system: CD4+ T cells in PBMCs; assay: Antigen-reactive T cell enrichment (ARTE); type: cell-based, human; conditions: peripheral blood of healthy individuals, 40 μg/ml fungal lysates
Method: PBMCs were freshly isolated from EDTA blood samples on the day of blood donation by density gradient centrifugation (Biocoll; Biochrom, Berlin, Germany). Antigen-reactive T cell enrichment (ARTE) was performed as follows. Briefly, 2×10e^7 PBMCs were plated in RPMI-1640 medium (GIBCO), supplemented with 5% (v/v) human AB-serum (Sigma Aldrich, Schnelldorf, Germany) at a cell density of 1×10e^7 PBMCs/2 cm^2 in cell culture plates and stimulated with 40 μg/ml fungal lysates for 7 hr in presence of 1 μg/ml CD40 and 1 μg/ml CD28 pure antibody (both Miltenyi Biotec, Bergisch Gladbach, Germany). 1 μg/ml Brefeldin A (Sigma Aldrich) was added for the last 2 hr. Cells were labeled with CD154-Biotin followed by anti-Biotin MicroBeads (CD154 MicroBead Kit; Miltenyi Biotec) and magnetically enriched by two sequential MS columns (Miltenyi Biotec). Surface staining was performed on the first column, followed by fixation, permeabilization (Inside stain Kit, Miltenyi Biotec) and intracellular staining on the second column. […]
Frequencies of antigen-specific T cells were determined based on the total cell count of CD154+ T cells after enrichment, normalized to the total number of CD4+ T cells applied on the column. […]

Kazachstania weizmannii [K. weizmannii]
anti-fungal serum IgA and IgG titers [1]: induced robust anti-fungal serum IgA and IgG titers in most animals | C. albicans colonization after co-inoculation ([2]; Abx-treated mice, 1:1 mixture of K. weizmannii and C. albicans): Candida colonization was prevented | displacement of established commensal C. albicans ([2]; mice stably colonized with C. albicans (on Abx) cohoused with K. weizmannii-harboring mice): progressive rapid ousting of C. albicans | C. albicans colonization after co-inoculation [3]: prevented efficient C. albicans colonization | polarization of fungus-reactive T cells [4]: of the Th1 type
